Experimental data reported in US20240192196A1, “NOVEL C[…]-CoV-2 SAFE REPLICON SYSTEM AND USE THEREOF” (SUN YAT-SEN UNIVERSITY, priority 2020, published 2024).

Tested on: novel coronavirus SARS-COV-2 safe replicon system
Experiment: microbe, parasite or virus in culture
Format: cell-based
Conditions: Severe acute respiratory syndrome coronavirus 2, HEK-293T, read-out: IC50 (semi-inhibitory concentration), inhibition of cellular luciferase activity

Row | Compound | IC50
1 | Cc1cccc(C)c1OCC(=O)N[C@@H](Cc1ccccc1)[C@@H](O)C[C@H](Cc1ccccc1)NC(=O)[C@H](C(C)C)N1CCCNC1=O [Lopinavir] | 6.79 ± 1.09 µM
2 | CCC(CC)COC(=O)[C@H](C)N[P@](=O)(OC[C@H]1O[C@@](C#N)(c2ccc3c(N)ncnn23)[C@H](O)[C@@H]1O)Oc1ccccc1 [Remdesivir] | 12.4 ± 1.08 µM
